According to PMC4010497, “Synthesis and Evaluation of Fluorine-Substituted Phenyl Acetate Derivatives as Ultra-Short Recovery Sedative/Hypnotic Agents” (PLoS ONE, 2014):

How the values were obtained:
[1] = In vitro metabolic half-life in rat whole blood; assay type: in vitro ADME; settings: male, Sprague-Dawley Rat (n = 3), 37°C, read-out: Mean t1/2 Value
Protocol: (§1) Human whole blood stability experiments were conducted in whole blood from four human donors (male, 18–25 years). Single experiments were conducted with pooled blood from Sprague-Dawley rats (male, 8 weeks, n = 3), New Zealand White rabbits (male, 8–10 weeks, n = 3), Beagle dogs (male, 2–3 years, n = 3) and Cynomolgus monkeys (male, 3–4 years, n = 3). All the blood samples were provided by Xuzhou Medical College. A 1.35-ml aliquot of blood was warmed at 37°C for 5 min and hypnotic (from a 40 mM stock in DMSO solution) was added to a final concentration of 200 µM. After the specified incubation time, a 150-µl sample was removed and the metabolic reaction was quenched using 150-µl acetonitrile. Zero time-point samples were prepared by adding 150-µl acetonitrile (using a 4 mM stock in DMSO) to 150-µl blood before addition of the hypnotic. The quenched samples were centrifuged, and the supernatant was separated and stored at −20°C until analyzed. Hypnotic concentrations in thawed samples were determined by high-performance liquid chromatography using a 3-µm phenyl 4.6×50-mm C-A-25, ACE column with the UV detector set at 240 nm. […] The lower limit of quantitation of this assay is 3 µM and the accuracy within 15% at 10 µM. The metabolic half-lives were quantified from the incubation time-dependent change in drug concentration.

[2] = system: GABAA and dopamine D2, D3, H1, 5HT1A, 5HT2A, 5HT2C, 5HTT, α1 and α2 receptors; settings: 50 µmol, GABAA vs off-target receptors
Protocol: (§2) All the new compounds were dissolved in 5% DMSO.
Total binding was determined in the absence of no-specific binding and compounds. Specific binding was determined in the presence of compounds. […]
Rat cerebral cortex was homogenized in 20 volumes of ice-cold Tris-HCl buffer (50 mM, pH 7.7) using an ULTRA TURAX homogeniser, and was then centrifuged at 32000 g for 10 min. […] The final pellet was resuspended in Tris-HCl buffer containing 10 µM Pargyline, 4 mM CaCl2 and 0.1% ascorbic acid. […] The incubation was followed by a rapid vacuum filtration through Whatman GF/B glass filters, and the filtrates were washed twice with 5 mL cold buffer and transferred to scintillation vials. Scintillation fluid (3.0 mL) was added and the radioactivity bound was measured using a Beckman LS 6500 liquid scintillation counter.
Rat cerebral cortex was homogenized in 20 volumes of ice-cold Tris-HCl buffer (50 mM, pH 7.7) using an ULTRA TURAX homogeniser, and centrifuged at 32000 g for 20 min. The resulting pellet was resuspended in the same quantity of the buffer centrifuged for 20 min. […] Scintillation fluid (3.0 mL) was added and the radioactivity bound was measured using a Beckman LS 6500 liquid scintillation counter.
The resulting pellet was resuspended in the same quantity of the buffer centrifuged for 20 min.

[3] = In vitro metabolic half-life in monkey whole blood; assay type: in vitro ADME; settings: male, Cynomolgus monkey (n = 3), 37°C, read-out: Mean t1/2 Value
Protocol: as §1

GABAA receptor = experiment: GABAA radioligand binding assay ([3H]EBOB); settings: 50 µM compound, 0.5 nM [3H]EBOB, rat frontoparietal cortex
Protocol: as §2
Specific binding was determined in the presence of compounds.
Membrane suspensions were thawed and centrifuged in incubation buffer at 10,000×g for 10 min and washed by a similar centrifugation. For displacement studies, membrane suspensions (5 mg original wet wt./ml) were incubated with 0.5 nM [^3H]EBOB ([…], Perkin Elmer Life Sciences, Boston, MA, USA) in the absence or presence of 50 µM of new compounds or reference drug for 2 h at 25°C. Nonspecific binding was determined in the presence of 10 µM Bicuculline. Bicuculline and picrotoxin were frequently used to determine the nonspecific binding when [3H]EBOB as radioligand [17]. Triplicate 1 ml samples were filtered on Whatman GF/B filters under vacuum with a Brandel Harvester and washed with 3×3 ml ice-cold buffer.

mice = experiment: in vivo; settings: LD50/HD50
Protocol: (§3) The LD50 was determined in mice, rats, and rabbits and the TI was calculated as LD50/HD50.

in vivo = settings: mouse, in vivo; mice, 95% confidence limits
Protocol: as §3

rabbits = experiment: Hypnotic potency and recovery after IV bolus in rabbits; assay type: in vivo, rabbit
Protocol: All tests were performed during the light period. Groups of mice, rats and rabbits were injected intravenously (lateral tail vein) over 10 s with each dose of test compound, placed in separate boxes to reduce external stimuli and assessed for the loss of righting reflex. Dosing was performed using mg/kg scheme. A set of dose levels was chosen, and depending on whether the loss of righting reflex was observed, extra doses were introduced to provide data for the loss of righting reflex over a narrow dose range to allow potency calculations.
Immediately following the injection, the mice, rats and rabbits were tested for loss of righting reflex. […] Once a loss was observed, the interval between the loss of righting reflex and the return to righting reflex was recorded. […] To compare the duration of LORR of each compound at equipotent doses, groups of mice, rats and rabbits were injected with each compound at 2× HD50 over 10 s.
Time to walk was the time required after righting before mice and rabbits walked from the center to the periphery of a 30-cm diameter dise.

[4] = In vitro metabolic half-life in human whole blood; assay type: in vitro ADME; settings: male, Human (n = 4), 37°C, read-out: Mean t1/2 Value
Protocol: as §1

CCOc1cc(CC(=O)OCC(F)(F)F)ccc1OCC(=O)N(CC)CC [Compound 5j, 2,2,2-trifluoroethyl 2-(4-(2-(diethylamino)-2-oxoethoxy)-3-ethoxyphenyl)acetate]
half-life at 200 µM [1]: 0.4 ± 0.1 min
binding selectivity profile [2]: selective binding to the GABAA receptor
half-life at 200 µM [3]: 48.9 ± 8.8 min
GABAA binding (50 µmol) (Mean ± SD), percentage of inhibition (GABAA receptor): 90.5±6.9%
TI (mice): 7.8
LD50 (in vivo): 192 mg/kg
Duration of LORR (rabbits; 2× HD50 dose, mean ± SD): 208.3 ± 19.8 s
Time to walk (rabbits; 2× HD50 dose, mean ± SD): 15.5 ± 7.5 s
HD50 (rabbits; IV, 95% confidence limits): 6.2 (4.7∼7.0) mg/kg
half-life at 200 µM [4]: 25.5 ± 5.6 min
